# Measurements reported in patent US20170313669A1, “LACTONE COMPOUNDS AND METHODS OF MAKING AND USING SAME” (THE SCRIPPS RESEARCH INSTITUTE, priority 2015, published 2017).
# Key:
# [1] = tested on: serine hydrolases; experiment: Gel-based ABPP in K562, off-targets; type: cell-based, human
# Experimental: The K562 cell line was treated with varying concentrations of KC01 for 4 h and the cell membrane fractions analyzed by gel-based ABPP. More specifically, the membrane proteome of K562 cells (left gel, FIG. 9) or cultured K562 cells (right gel, FIG. 9) were treated with the indicated concentrations of KC01 (in vitro: 1 mg/mL proteome; 30 min treatment, 37° C.; in situ: 2×10^6 cells; 4 h treatment, 37° C.), followed by FP-rhodamine (added in vitro to cell proteomes at 2 μM for 30 min, 37° C.) and analyzed by gel-based ABPP. Estimated in vitro and in situ IC50 values for KC01 from the gel-based ABPP experiments were 0.2-0.5 μM. Gel-based ABPP experiments were performed in triplicate with consistent results.
# [2] = molecular target: T1, ABHD16A (Homo sapiens, UniProt O95870); experiment: ABPP-SILAC, COLO205 cells treated in situ; type: cell-based; set-up: All ABPP-SILAC experiments were performed using the human COLO205 colon cancer cell line; endogenous in cells; host or cells: COLO205
# T1 sequence (O95870 1-558): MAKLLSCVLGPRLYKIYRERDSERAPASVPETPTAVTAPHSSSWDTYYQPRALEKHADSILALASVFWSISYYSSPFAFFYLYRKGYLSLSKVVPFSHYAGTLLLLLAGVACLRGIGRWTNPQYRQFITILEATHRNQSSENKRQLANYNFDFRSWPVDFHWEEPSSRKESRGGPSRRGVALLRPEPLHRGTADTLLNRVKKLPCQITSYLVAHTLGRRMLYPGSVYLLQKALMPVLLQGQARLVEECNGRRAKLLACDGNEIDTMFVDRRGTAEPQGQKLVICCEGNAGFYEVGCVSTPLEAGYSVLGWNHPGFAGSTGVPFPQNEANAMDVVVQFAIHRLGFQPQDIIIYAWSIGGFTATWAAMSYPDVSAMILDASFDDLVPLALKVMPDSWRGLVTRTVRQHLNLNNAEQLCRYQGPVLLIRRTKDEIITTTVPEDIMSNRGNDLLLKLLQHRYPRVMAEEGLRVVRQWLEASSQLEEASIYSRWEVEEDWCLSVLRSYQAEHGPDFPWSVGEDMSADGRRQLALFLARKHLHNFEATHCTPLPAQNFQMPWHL
# [3] = molecular target: T1, ABHD16A; experiment: PS substrate assay, human ABHD16A-transfected HEK293T membrane proteome; type: biochemical; set-up: transiently transfected with 12 μg of the full-length cDNA of human ABHD16A (Open Biosystems Catalog # MHS6278-202758315); host or cells: HEK293T, transient, pCMV-SPORT6
# Experimental: HEK293T cells were grown to 40% confluence in a 15 cm dish in 25 mL of Dulbecco's modified Eagle medium (DMEM) supplemented with L-glutamine and 10% (vol/vol) FCS at 37° C. and 5% CO2 (vol/vol). The cells were transiently transfected with 12 μg of the full-length cDNA of human ABHD16A (Open Biosystems Catalog # MHS6278-202758315) or murine ABHD16A (Open Biosystems Catalog # MMM1013-202760516) in pCMV-SPORT6 vector using 40 μg polyethyleneimine “MAX” (MW 40,000) (PEI) (Polysciences Inc. Catalog #24765) as the transfection reagent as per manufacturer's instructions. As a “mock” control, an empty vector was transiently transfected. […] Protein concentration was measured using the Bio-Rad DC Protein Assay Kit as per manufacturer's protocol, and ABHD16A expression was confirmed using gel-based ABPP.
# All the lipid species used in the lipid substrate hydrolysis assays were purchased from Avanti Polar Lipids Inc unless mentioned otherwise. […] All the data was collected and analyzed using the Agilent MassHunter Workstation software version B.04 using the Data Acquisition and Quantitative Analysis programs respectively. Measuring the area under the peak, and normalizing it to the internal standard quantified the product release for the lipid substrate hydrolysis assays. […] Some products from the substrate hydrolysis assays were detected in positive ion mode for qualitative identification. […]
smiles,measurement,setting,value
"CCCCCCCCCCCCCC1OC(=O)/C1=C\CCCCC(N)=O (stereo not shown) [KC01, (Z)-6-(2-oxo-4-tridecyloxetan-3-ylidene)hexanamide]",off-targets detected,[1],Very few off-targets
same,light:heavy ratio,"[2]; 1 μM, 4 h",0.02
same,inhibition at 1 µM,"[2]; COLO 205, 4 h",98%
same,IC50,[3],90 ± 20 nM
